Results: ChEMBL document CHEMBL2331300, “Inhibition of enterovirus 71 infections and viral IRES activity by Fructus gardeniae and geniposide” (2013)

Tests used:
Enterovirus A71 [1] = assay: Antiviral activity against EV71 infected in human RD cells assessed as inhibition of viral infection at 2 mg/ml treated 24 hrs prior to infection measured after 72 hrs by WST-1 assay; assay type: functional; conditions: Enterovirus A
Enterovirus A71 [2] = assay: Antiviral activity against EV71 infected in human RD cells assessed as cell survival rate at 1 to 2 mg/ml after 24 hrs by WST-1 assay; assay type: functional
Enterovirus A71 [3] = assay: Antiviral activity against EV71 infected in human RD cells assessed as viral RNA transcript level at 1 mg/ml treated 24 hrs prior to infection measured after 24 hrs by real time RT-PCR analysis; assay type: functional
RD [4] = assay: Inhibitory activity of EV71 IRES co-transfected with EMCV IRES in human RD cells at 2 mg/ml after 24 hrs by luciferase reporter gene assay; assay type: cell-based; conditions: Enterovirus A71
Enterovirus A71 [5] = assay: Antiviral activity against EV71 infected in human RD cells assessed as viral RNA transcript level at 2 mg/ml treated 24 hrs prior to infection measured after 24 hrs by real time RT-PCR analysis; assay type: functional
RD [6] = assay: Inhibitory activity of EMCV IRES co-transfected with EV71 5' UTR in human RD cells at 2 mg/ml after 24 hrs by luciferase reporter gene assay; assay type: cell-based; conditions: Encephalomyocarditis virus

Structure (SMILES) | inhibition at 2000 µg/mL (Enterovirus A71 [1]) | Survival (Enterovirus A71 [2]) | Activity (Enterovirus A71 [3]) | inhibition (RD [4]) | Activity (Enterovirus A71 [5]) | inhibition (RD [6])
COC(=O)C1=CO[C@@H](O[C@@H]2O[C@H](CO)[C@@H](O)[C@H](O)[C@H]2O)[C@@H]2C(CO)=CC[C@H]12 [GENIPOSIDE] | 80% | >=80% | 60% | 50% | 20% | 50%
CC(/C=C/C=C(\C)C(=O)O[C@@H]1O[C@H](CO[C@@H]2O[C@H](CO)[C@@H](O)[C@H](O)[C@H]2O)[C@@H](O)[C@H](O)[C@H]1O)=C\C=C\C=C(C)\C=C\C=C(/C)C(=O)O[C@@H]1O[C@H](CO[C@@H]2O[C@H](CO)[C@@H](O)[C@H](O)[C@H]2O)[C@@H](O)[C@H](O)[C@H]1O [CROCIN] | – | >=80% | – | – | – | –
COC(=O)C1=CO[C@@H](O)[C@@H]2C(CO)=CC[C@H]12 [GENIPIN] | – | >=80% | – | – | – | –
O=C(O)C1=CO[C@@H](O[C@@H]2O[C@H](CO)[C@@H](O)[C@H](O)[C@H]2O)[C@@H]2C(CO)=CC[C@H]12 [GENIPOSIDIC ACID] | – | >=80% | – | – | – | –
